Results taken from US20230321024A1, “METHODS OF TREATING VISUAL DISORDERS USING DAILY LOW DOSING OF A RETINOID COMPOUND” (ELUMINEX BIOSCIENCES (SUZHOU) LIMITED, priority 2020, published 2023).

Tests used:
[1] = Population PK model (2 compartment, concentration-dependent clearance) for 9-cis-retinol built on the observed clinical data; conditions: human blood, FIG. 4
Excerpt: FIG. 3 schematically illustrates a 2 compartment PK model used to describe the observed clinical data.
From the observed PK data analyzed, a population PK model for levels of 9-cis-retinol was built. Based on the observed clinical data, a 2 compartment PK model was constructed (FIG. 3). This kinetic model for 9-cis-retinol includes a recirculation feature that maintains 9-cis-retinol levels for long periods of time. Two features of this model include apparent concentration-dependent clearance of 9-cis-retinol from the blood, and apparent zero or close to zero clearance at low concentrations. This accounts for long recirculating levels of 9-cis-retinol, seen in samples consistently at 100 hours, 300 hours and 700 hours post last dose administered.
(§1) Clearance from the blood is rapid above ˜8 nM, but quickly drops to zero or near zero below that level. Steady state levels (from ˜24 hrs post dose) are 4.57 nM (10 mg/m^2 dose, 83 samples), 8.32 nM (40 mg/m^2 dose, 149 samples), and 7.46 nM (5 to 60 mg/m^2, 629 samples).

[2] = Human pharmacokinetics of circulating 9-cis-retinol in blood from completed clinical trials after oral 9-cis-retinyl acetate; format: in vivo
Experimental: FIG. 2 plots human pharmacokinetic (PK) data for the circulating levels of 9-cis-retinol in the blood from completed clinical trials where 9-cis-retinyl acetate was administered orally.
9-cis-retinyl acetate is the acetate ester of 9-cis-retinol. Acetate esters like 9-cis-retinyl acetate are generally short-lived because they are readily hydrolyzed either at physiological pH or by esterases in the blood and other parts of the body.
Thus, further discussion focuses on 9-cis-retinol.
Collated in FIG. 2 are human PK data that show a Cmax between 4 and 7 hours for 9-cis-retinol independent of initial dose administered. A low steady level of 9-cis-retinol is achieved in ˜24 hours. […] The circulating 9-cis-retinol is observed at similar levels from about 24 hours through at least 700 hours after a single dose.
as §1

CC1=C(/C=C/C(C)=C\C=C\C(C)=C\CO)C(C)(C)CCC1 [9-cis-retinol]
Concentration above which clearance from the blood is rapid (drops to zero or near zero below) [1]: ~8 nM | Steady state levels (from ~24 hrs post dose) ([2]; 10 mg/m^2 dose, 83 samples): 4.57 nM | Steady state levels (from ~24 hrs post dose) ([2]; 40 mg/m^2 dose, 149 samples): 8.32 nM | Steady state levels (from ~24 hrs post dose) ([2]; 5 to 60 mg/m^2, 629 samples): 7.46 nM | Time through which circulating 9-cis-retinol is observed at similar levels ([2]; human, in vivo): at least 700 hours | Cmax (time of) for 9-cis-retinol ([2]; human, in vivo, po): 4 to 7 h | Time at which a low steady level of 9-cis-retinol is achieved ([2]; human, in vivo, po): about 24 hours

CC(=O)OC/C=C(C)/C=C/C=C(C)\C=C\C1=C(C)CCCC1(C)C [9-cis-retinyl acetate, (2E,4E,6Z,8E)-3,7-dimethyl-9-(2,6,6-trimethylcyclohex-1-en-1-yl)nona-2,4,6,8-tetraen-1-yl acetate]
Persistence of 9-cis-retinyl acetate in human blood samples following oral dosing ([2]; human, in vivo, po): extremely short lived and rapidly hydrolyzed to 9-cis-retinol
